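Test compounds were applied to cells in 96-well plates for 48 hours at 5 doses. Here, GI50 denotes the concentration required for 50% inhibition of growth. The concentration for full growth arrest is given as TGI.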

Holding throughout (assay): NCI tumour cell line growth inhibition, 48 h
Experiment [1] has as its system UO-31 renal.
Experiment [2] relates to U251 CNS.
In experiment [3] the test system is RXF 393 renal.
The subject of experiment [4] is NCI-H460 lung.
The subject of experiment [5] is SK-OV-3 ovarian.
In experiment [6] the test system is SN12C renal.
Experiment [7] relates to 786-0 renal.
The subject of experiment [8] is HOP-62 NSCLC.
Experiment [9] concerns SK-MEL-28 melanoma.

As to `Cc1cc(NS(=O)(=O)c2ccc(NC(=O)c3cccc4cc5ccccc5nc34)cc2)no1`, the TGI in experiment [1] was 19.2 µM; in experiment [2] it was 75.5 µM; in [3], 29.1 µM; in experiment [4] it was 72.2 µM; in [5] it was more than 100 µM; in experiment [6], 43.3 µM. The TGI in experiment [7] came out at 32.6 µM; in [8] it was 66.4 µM; in [9] it was 33.1 µM.

As for `CCC[CH2][Sn]1([CH2]CCC)[O]C(=O)c2cccc(OC)c2[O]1`, the GI50 in [1] is 0.806 µM; in experiment [2], 0.237 µM; in experiment [4], 1.38 µM; in experiment [5], 1.39 µM; in [6], 0.47 µM; in experiment [7], 0.554 µM. Besides, the values for the GI50 in experiment [8] and in [9] were 2.27 µM and 0.234 µM, respectively. The TGI was 2.07 µM in experiment [1]; 0.751 µM in experiment [2]; 2.9 µM in experiment [4]; 2.71 µM in [5]; 1.71 µM in [6]; 1.91 µM in experiment [7]. Further, the TGI in experiment [8] turned out to be 3.75 µM; in experiment [9], 0.747 µM.

Turning to `Cc1ccc(-c2nc3c(C(=O)NCCN(C)C)cccc3[nH]2)cc1`, the TGI in experiment [1] turned out to be 22.9 µM; in [2], 61.1 µM; in [3], 24.1 µM; in experiment [4], 21.1 µM; in experiment [5], 72.8 µM; in [6] it was 63.5 µM. Also, the TGI was more than 100 µM in [7], 36.1 µM in experiment [8] and 32.4 µM in experiment [9].

Consider `COc1ccc(NC(=O)COC(=O)c2cccc3c(=O)c4ccccc4[nH]c23)cc1`, for which the TGI in [1] is 36.4 µM; in [2], 44.8 µM; in experiment [3], 35.5 µM; in experiment [5], 67.4 µM; in experiment [6], 92.8 µM; in experiment [7], 53.1 µM. Further, the TGI in experiment [8] was determined as 55.1 µM; in [9] it was 84.8 µM.

On to `O=C1Cc2ccccc2N1c1c(Cl)cccc1Cl`, for which the TGI in experiment [1], in experiment [2], in [4], in [5], in [6] and in [7] was more than 100 µM throughout. Besides, the TGI in [8] and in experiment [9] was more than 100 µM each time.

For `CCCCCCCCCCCCCC(=O)OC(/C=C/C(C)C)C(O)C(O)C(OC)C(=O)NC1CCCCNC1=O` (stereo unspecified), the TGI in experiment [1] amounted to 4.98 µM; in [2], 4.3 µM; in [3], 3.38 µM; in [4] it was 3.85 µM; in experiment [5], 10.4 µM; in experiment [6], 4.39 µM. The TGI in experiment [7] turned out to be 3.93 µM; in experiment [8], 6.8 µM; in [9], 5.11 µM. Also, the GI50 was 2.47 µM in experiment [2], 0.461 µM in experiment [4], 1.56 µM in [7] and 3.88 µM in [8].

With `S=P1(c2ccccc2)Nc2ccc(Cl)cc2N1` (stereo unspecified), the TGI in [1], in experiment [2], in [4], in [5], in experiment [7] and in experiment [8] was more than 100 µM in each case. For the same compound, the TGI in experiment [9] is more than 100 µM.

For the compound `CCN(CC)CCC(=O)N1CCc2c([nH]c3ccccc23)C1c1cccnc1` (stereo unspecified), the TGI in experiment [1], in [2], in experiment [4], in [5], in experiment [6] and in experiment [7] was more than 100 µM throughout. Moreover, the TGI in experiment [8] and in [9] was more than 100 µM throughout.

For the compound `CC(=O)OC1(C#N)CC2OC1C1C2N1C(=O)OC(C)(C)C` (stereo unspecified), the TGI in experiment [1], in experiment [2], in [3], in experiment [4], in experiment [5] and in experiment [6] was more than 100 µM in each case. The TGI in experiment [7], in [8] and in experiment [9] was more than 100 µM in each case.

Turning to `COc1ccc(CC2NCCc3cc(OC)c(OC)cc32)cc1` (stereo unspecified), the TGI in experiment [1], in experiment [2], in experiment [3], in experiment [4], in experiment [5] and in experiment [6] was more than 100 µM throughout. The TGI in experiment [7], in [8] and in [9] was more than 100 µM each time.

As for `CC1CC(=O)C(CC(=O)O)C1C(C(=O)C(=O)Nc1c(C#N)cccc1[N+](=O)[O-])[N+](=O)[O-]` (stereo unspecified), the TGI in [1], in [2], in experiment [3], in [4], in [5] and in experiment [7] was more than 100 µM each time. Also, the TGI in experiment [8] and in experiment [9] was more than 100 µM each time.

Turning to `Oc1ccc2c3c1OC1C(=NN=C4CCC5(O)C6Cc7ccc(O)c8c7C5(CCN6CC5CC5)C4O8)CCC4(O)C(C2)N(CC2CC2)CCC314` (stereo unspecified), the TGI in experiment [1] was more than 100 µM; in experiment [2] it was 32.1 µM; in [3], more than 100 µM; in [4], 46.1 µM; in [5], more than 75.2 µM; in experiment [6], more than 59.9 µM. For the same compound, the figures for the TGI in experiment [7], in experiment [8] and in experiment [9] were 66.2 µM, more than 65.7 µM and 49.4 µM, respectively.

Regarding `O=C1CCCC(=O)C1=C(O)CCCCCCCCCCc1ccccc1`, the TGI in experiment [1] is 60.1 µM; in experiment [2], more than 100 µM; in [3], 92.7 µM; in experiment [4], more than 100 µM; in experiment [5], 96.8 µM; in experiment [6], more than 100 µM. Besides, the TGI in [7], in [8] and in [9] was more than 100 µM each time.

Consider `C=CCC12CC(=O)C=C1CCC1(C2)OCCO1` (stereo unspecified), for which the TGI in experiment [1], in experiment [2], in experiment [3], in experiment [4], in experiment [5] and in experiment [6] was more than 100 µM each time. In addition, the TGI in experiment [7], in experiment [8] and in [9] was more than 100 µM throughout.

Values taken from PubChem BioAssay (NCI).
